Laboratory results taken from US20230312550A1, “N-(2-(4-CYANOTHIAZOLIDIN-3-YL)-2-OXOETHYL)-QUINOLINE-4-CARBOXAMIDES” (AstraZeneca AB, priority 2020, published 2023).
≈ marks a conversion by molar mass, not a printed value.

Tests used:
[1] = biological target: human Fibroblast activation protein alpha (hFAP) (Homo sapiens (Human), UniProt Q12884); assay: hFAP inhibition assay (tight binders); assay type: biochemical; conditions: Ala-Pro-AMC 20 μM, n = 1 or geometric mean n = 2-6; further: hFAP 2.4 pM
Procedure: The plates were read on a PHERAstar® reader with excitation 340 nm and emission 460 nm. Data were analyzed in Genedata Screener®. IC50 values were determined by plotting % inhibition versus log compound concentration and using a one site dose response model.

[2] = biological target: hFAP (M39-A757) (Homo sapiens (Human), UniProt Q12884); assay: hFAP binding assay (surface plasmon resonance); conditions: SPR, 20° C.; for hFAP Binding assay k(off) / hFAP Binding assay k(on): single cycle kinetics; for Kd: n = 1 or geometric mean n = 2-4
Procedure: Compounds were tested in a direct binding assay using 8K surface plasmon resonance biosensor (GE Healthcare) at 20° C. Immobilization of hFAP (M39-A757) on a CMD200M sensor chip (Xantec) was performed using standard amine coupling procedure in immobilization buffer (10 mM HEPES, 150 mM NaCl, 0.05% Tween20, pH 7.4). The surface was washed with 10 mM NaOH, 1M NaCl before being activated with EDC/NHS (GE Healthcare), followed by immobilization of hFAP (in 10 mM Acetate pH 5.0). Finally, the surface was deactivated by ethanolamine. Immobilization levels of hFAP were around 4000-6000 RU. The reference spot was treated as described, omitting the injection of hFAP. Compound concentration series were injected over the immobilized protein in increasing concentrations (2-500 nM) using single cycle kinetics in running buffer (20 mM TRIS, 150 mM NaCl, 0.05% Tween20, 1% DMSO, pH 7.4). Interaction models were fitted globally to the experimental traces, enabling determination of kon, koff and Kd.

[3] = biological target: Prolyl endopeptidase, Prolyl Oligopeptidase (hPREP) (Homo sapiens (Human), UniProt P48147); assay: hPrep inhibition assay; assay type: biochemical; conditions: hPREP 0.6 nM, Z-Gly-Pro-amino-methylcoumarin 50 μM; read-out: PREP IC50
Method in brief: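 Fluorogenic read-out (340 nm excitation, 460 nm emission) after 20 min at rt, using 50 μM final Z-Gly-Pro-aminomethylcoumarin and 0.6 nM final enzyme, following 15 min compound preincubation. Buffer pH 7.5 with glutathione and Triton X-100. IC50 via one-site model on % inhibition vs log concentration.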

[4] = Kinetic solubility
Procedure: Kinetic solubility was measured as described in Comput Aided Mol Des 2015, 29, 795.

[5] = Metabolic stability in rat hepatocytes (rHep); conditions: n = 1 or geometric mean of n = 2-3
[6] = Metabolic stability in human liver microsomes (HLM); conditions: human
Procedure: Metabolic stability in HLM was measured as described in J Comput Aided Mol Des 2015, 29, 795.

[7] = kinetic from dmso stock, Solubility, kinetic solubility, n = 1 or average of n = 2-3
[8] = HLM CLint, n = 1 or average of n = 2-3

Sequence of Prolyl endopeptidase, Prolyl Oligopeptidase (hPREP) (P48147 whole entry): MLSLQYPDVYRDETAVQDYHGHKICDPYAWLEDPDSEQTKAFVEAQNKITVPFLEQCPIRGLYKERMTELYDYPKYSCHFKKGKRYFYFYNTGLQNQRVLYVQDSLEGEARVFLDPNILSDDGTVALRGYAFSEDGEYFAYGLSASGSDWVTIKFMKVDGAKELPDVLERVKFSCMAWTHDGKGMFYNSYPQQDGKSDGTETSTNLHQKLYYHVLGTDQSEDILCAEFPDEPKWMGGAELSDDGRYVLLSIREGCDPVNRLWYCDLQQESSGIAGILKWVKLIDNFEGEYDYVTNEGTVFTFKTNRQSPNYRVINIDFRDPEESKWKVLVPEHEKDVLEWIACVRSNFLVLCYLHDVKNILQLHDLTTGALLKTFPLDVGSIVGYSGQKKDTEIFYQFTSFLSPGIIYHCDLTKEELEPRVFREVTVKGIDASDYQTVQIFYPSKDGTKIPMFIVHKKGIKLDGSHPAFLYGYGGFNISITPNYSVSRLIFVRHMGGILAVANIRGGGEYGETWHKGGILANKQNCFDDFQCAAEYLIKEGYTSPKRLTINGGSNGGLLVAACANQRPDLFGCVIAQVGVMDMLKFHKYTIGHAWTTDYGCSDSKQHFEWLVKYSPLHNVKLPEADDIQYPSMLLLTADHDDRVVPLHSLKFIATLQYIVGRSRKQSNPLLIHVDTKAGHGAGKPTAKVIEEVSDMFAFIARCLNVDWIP
Sequence of hFAP (M39-A757) (Q12884 39-757): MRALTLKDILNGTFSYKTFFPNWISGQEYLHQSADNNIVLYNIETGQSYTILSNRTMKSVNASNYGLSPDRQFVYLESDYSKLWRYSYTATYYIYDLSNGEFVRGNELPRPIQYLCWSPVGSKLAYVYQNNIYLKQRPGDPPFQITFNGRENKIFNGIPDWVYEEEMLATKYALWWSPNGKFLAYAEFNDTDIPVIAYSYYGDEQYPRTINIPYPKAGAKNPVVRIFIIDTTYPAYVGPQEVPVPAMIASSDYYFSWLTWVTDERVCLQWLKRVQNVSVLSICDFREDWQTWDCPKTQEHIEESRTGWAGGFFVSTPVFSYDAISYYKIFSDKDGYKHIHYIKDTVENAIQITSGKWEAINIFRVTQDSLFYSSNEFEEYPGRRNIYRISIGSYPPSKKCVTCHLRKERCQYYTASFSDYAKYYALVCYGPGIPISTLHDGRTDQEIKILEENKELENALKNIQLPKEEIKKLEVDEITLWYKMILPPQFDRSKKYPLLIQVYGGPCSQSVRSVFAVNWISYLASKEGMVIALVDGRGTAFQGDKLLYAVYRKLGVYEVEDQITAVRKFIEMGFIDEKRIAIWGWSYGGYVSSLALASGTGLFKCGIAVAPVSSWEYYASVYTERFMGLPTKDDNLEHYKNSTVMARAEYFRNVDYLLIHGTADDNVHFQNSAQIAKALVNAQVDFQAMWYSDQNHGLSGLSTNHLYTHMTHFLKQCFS
Sequence of human Fibroblast activation protein alpha (hFAP) (Q12884 38-760): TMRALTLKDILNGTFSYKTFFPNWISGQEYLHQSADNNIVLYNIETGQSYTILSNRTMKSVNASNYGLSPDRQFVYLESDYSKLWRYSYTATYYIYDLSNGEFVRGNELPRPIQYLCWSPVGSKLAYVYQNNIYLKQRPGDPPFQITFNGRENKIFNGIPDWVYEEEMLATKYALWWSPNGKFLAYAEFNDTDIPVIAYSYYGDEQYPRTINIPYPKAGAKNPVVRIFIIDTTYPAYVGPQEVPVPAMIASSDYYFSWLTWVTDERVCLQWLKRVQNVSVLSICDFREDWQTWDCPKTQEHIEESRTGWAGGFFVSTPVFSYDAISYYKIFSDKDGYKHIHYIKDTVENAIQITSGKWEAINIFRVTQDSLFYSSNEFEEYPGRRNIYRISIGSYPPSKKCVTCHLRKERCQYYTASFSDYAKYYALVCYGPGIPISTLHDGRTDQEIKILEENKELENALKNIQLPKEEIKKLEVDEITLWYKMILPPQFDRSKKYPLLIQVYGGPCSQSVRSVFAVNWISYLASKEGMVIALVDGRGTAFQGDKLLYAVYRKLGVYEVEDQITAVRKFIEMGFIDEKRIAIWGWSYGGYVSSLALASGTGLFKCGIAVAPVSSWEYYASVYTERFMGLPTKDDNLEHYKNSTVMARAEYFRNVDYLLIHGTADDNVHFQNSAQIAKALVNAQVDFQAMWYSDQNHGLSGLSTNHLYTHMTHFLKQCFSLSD

| SMILES | IC50 [1] [nM] | hFAP Binding assay k(off) [2] [s⁻¹] | hFAP Binding assay k(on) [2] [M⁻¹ s⁻¹] | Kd [2] [nM] | IC50 [3] [nM] | solubility [4, 7] [µM] | rHep CLint [5] [μL/min/1E6] | microsomal CLint [6, 8] [µL/min/mg] | solubility ([4]; kinetic solubility, n = 1 or average of n = 2-3) [µM] | solubility ([4]; kinetic from dmso stock) [µM] | microsomal CLint [6] [µL/min/mg] |
| --- | --- | --- | --- | --- | --- | --- | --- | --- | --- | --- | --- |
| COC1CN(c2ccc3nccc(C(=O)NCC(=O)N4CSC[C@H]4C#N)c3c2)C1 [Example 66, (R)—N-(2-(4-Cyanothiazolidin-3-yl)-2-oxoethyl)-6-(3-methoxyazetidin-1-yl)quinoline-4-carboxamide] | 0.077 | 0.00022 | 26000000 | 0.035 | 490 | 210 (≈ 86.4 µg/mL) | <1 | < 3 | – | – | – |
| N#C[C@@H]1CSCN1C(=O)CNC(=O)c1ccnc2ccc(-n3cc4c(n3)CCCC4)cc12 [Example 115, (R)—N-(2-(4-Cyanothiazolidin-3-yl)-2-oxoethyl)-6-(4,5,6,7-tetrahydro-2H-indazol-2-yl)quinoline-4-carboxamide] | 0.04 | – | – | 0.11 | 130 | 0.59 (≈ 0.263 µg/mL) | 20 | 120 | – | – | – |
| CCC1(OC)CCN(c2ccc3nccc(C(=O)NCC(=O)N4CSC[C@H]4C#N)c3c2)CC1 [Example 191, (R)—N-(2-(4-Cyanothiazolidin-3-yl)-2-oxoethyl)-6-(4-ethyl-4-methoxy-piperidin-1-yl)quinoline-4-carboxamide] | 0.038 | 0.000033 | 1500000 | 0.022 | 550 | 400 (≈ 187 µg/mL) | 5.3 | 94 | – | – | – |
| CC1(CC(F)F)CN(c2ccc3nccc(C(=O)NCC(=O)N4CSC[C@H]4C#N)c3c2)C1 [Example 133, (R)—N-(2-(4-Cyanothiazolidin-3-yl)-2-oxoethyl)-6-(3-(2,2-difluoroethyl)-3-methylazetidin-1-yl)quinoline-4-carboxamide] | 0.1 | 0.000073 | 1200000 | 0.066 | 370 | < 380 | 8.8 | 40 | – | – | – |
| C[C@@H]1CN(c2ccc3nccc(C(=O)NCC(=O)N4CSC[C@H]4C#N)c3c2)C[C@H]1C (single isomer, unassigned) [Example 225, N-(2-((R)-4-Cyanothiazolidin-3-yl)-2-oxoethyl)-6-((3R*,4R*)-3,4-dimethylpyrrolidin-1-yl)quinoline-4-carboxamide] | 0.11 | – | – | 0.077 | 470 | – | 37 | 110 | 2.2 (≈ 0.932 µg/mL) | – | – |
| N#C[C@@H]1CSCN1C(=O)CNC(=O)c1ccnc2ccc(N3CC(CC(F)(F)F)C3)cc12 [Example 158, (R)—N-(2-(4-Cyanothiazolidin-3-yl)-2-oxoethyl)-6-(3-(2,2,2-trifluoroethyl)-azetidin-1-yl)quinoline-4-carboxamide] | 0.1 | 0.00029 | 3100000 | 0.1 | 560 | 8.9 (≈ 4.13 µg/mL) | 4.7 | 17 | – | – | – |
| CC(C)OC1CCN(c2ccc3nccc(C(=O)NCC(=O)N4CSC[C@H]4C#N)c3c2)CC1 [Example 43, (R)—N-(2-(4-Cyanothiazolidin-3-yl)-2-oxoethyl)-6-(4-isopropoxypiperidin-1-yl)quinoline-4-carboxamide] | 0.045 | 0.000019 | 3200000 | 0.0061 | 1000 | 52 (≈ 24.3 µg/mL) | 9.1 | 36 | – | – | – |
| Cc1cc(C(F)(F)F)nn1-c1ccc2nccc(C(=O)NCC(=O)N3CSC[C@H]3C#N)c2c1 [Example 116, (R)—N-(2-(4-Cyanothiazolidin-3-yl)-2-oxoethyl)-6-(5-methyl-3-(trifluoromethyl)-1H-pyrazol-1-yl)quinoline-4-carboxamide] | 0.16 | 0.0012 | 7900000 | 0.15 | 230 | 490 (≈ 232 µg/mL) | 15 | 98 | – | – | – |
| N#C[C@@H]1CSCN1C(=O)CNC(=O)c1ccnc2ccc(-n3ccc4cc(F)ccc43)cc12 [Example 120, (R)—N-(2-(4-Cyanothiazolidin-3-yl)-2-oxoethyl)-6-(5-fluoro-1H-indol-1-yl)quinoline-4-carboxamide] | 0.15 | – | – | 0.13 | 25 | 0.92 (≈ 0.423 µg/mL) | 27 | 100 | – | – | – |
| N#C[C@@H]1CSCN1C(=O)CNC(=O)c1ccnc2ccc(N3CC(OC(F)F)C3)cc12 [Example 136, (R)—N-(2-(4-Cyanothiazolidin-3-yl)-2-oxoethyl)-6-(3-(difluoromethoxy)-azetidin-1-yl)quinoline-4-carboxamide] | 0.061 | 0.000050 | 2000000 | 0.036 | 300 | 21 (≈ 9.4 µg/mL) | 4.8 | < 3 | – | – | – |
| CCC1(C)CN(c2ccc3nccc(C(=O)NCC(=O)N4CSC[C@H]4C#N)c3c2)C1 [Example 137, (R)—N-(2-(4-Cyanothiazolidin-3-yl)-2-oxoethyl)-6-(3-ethyl-3-methyl-azetidin-1-yl)quinoline-4-carboxamide] | 0.11 | 0.000098 | 9500000 | 0.013 | 340 | 74 (≈ 31.3 µg/mL) | 17 | 70 | – | – | – |
| Cc1ccn(-c2ccc3nccc(C(=O)NCC(=O)N4CSC[C@H]4C#N)c3c2)c1 [Example 121, (R)—N-(2-(4-Cyanothiazolidin-3-yl)-2-oxoethyl)-6-(3-methyl-1H-pyrrol-1-yl)quinoline-4-carboxamide] | 0.15 | 0.000016 | 1100000 | 0.012 | 88 | 44 (≈ 17.8 µg/mL) | 13 | 43 | – | – | – |
| CC1(C)CN(c2ccc3nccc(C(=O)NCC(=O)N4CSC[C@H]4C#N)c3c2)C(=O)O1 [Example 13, (R)—N-(2-(4-Cyanothiazolidin-3-yl)-2-oxoethyl)-6-(5,5-dimethyl-2-oxooxazolidin-3-yl)quinoline-4-carboxamide] | 0.041 | 0.000076 | 9200000 | 0.014 | 380 | 27 (≈ 11.9 µg/mL) | 5.4 | 12 | – | – | – |
| N#C[C@@H]1CSCN1C(=O)CNC(=O)c1ccnc2ccc(N3CCC(F)(c4ccccc4)CC3)cc12 [Example 223, (R)—N-(2-(4-Cyanothiazolidin-3-yl)-2-oxoethyl)-6-(4-fluoro-4-phenyl-piperidin-1-yl)quinoline-4-carboxamide] | 0.076 | 0.000026 | 2500000 | 0.01 | 86 | < 1.6 | 51 | 57 | – | – | – |
| N#C[C@@H]1CSCN1C(=O)CNC(=O)c1ccnc2ccc(N3CC4(CC(C(F)(F)F)C4)C3)cc12 [Example 150, (R)—N-(2-(4-Cyanothiazolidin-3-yl)-2-oxoethyl)-6-(6-(trifluoromethyl)-2-azaspiro[3.3]heptan-2-yl)quinoline-4-carboxamide] | 0.5 | 0.000043 | 280000 | 0.16 | 2000 | – | 5 | – | – | 77 (≈ 37.7 µg/mL) | 49 |
| N#C[C@@H]1CSCN1C(=O)CNC(=O)c1ccnc2ccc(N3CC(CC(F)F)C3)cc12 [Example 144, (R)—N-(2-(4-Cyanothiazolidin-3-yl)-2-oxoethyl)-6-(3-(2,2-difluoroethyl)-azetidin-1-yl)quinoline-4-carboxamide] | 0.081 | 0.00051 | 9100000 | 0.049 | 460 | 18 (≈ 8.02 µg/mL) | 7 | 14 | – | – | – |
| N#C[C@@H]1CSCN1C(=O)CNC(=O)c1ccnc2ccc(-n3ccc(C(F)(F)F)n3)cc12 [Example 118, (R)—N-(2-(4-Cyanothiazolidin-3-yl)-2-oxoethyl)-6-(3-(trifluoromethyl)-1H-pyrazol-1-yl)quinoline-4-carboxamide] | 0.1 | – | – | 0.17 | 360 | 20 (≈ 9.21 µg/mL) | 21 | 41 | – | – | – |
